Test results taken from patent US9737493B2, “Compositions and methods for modulating DNMT1 inhibitor activity” (University of Louisville Research Foundation, Inc., priority 2012, dated 2017).

Experiments:
Assay type in all cases: cell-based, human
Hs27 cells [1] = assay: MitoSOX Red mitochondrial superoxide, flow cytometry; conditions: Hs27, 1 μM, 8 h
Method: (§1) FIG. 7: XB05 Induces ROS. (A) Cells were treated with either vehicle, tert-butyl hydrogen peroxide (TBHP, 100 μM, 3 h) or XB05 (8 h with 1 μM for U937 and Hs27, or 2 μM for A549), then stained with carboxy-H2DCFDA and PI for analysis by flow cytometry. Histograms illustrate representative data and bar graphs show the increase (over vehicle control) in the percentage of PI-negative (viable) cells with positive DCF fluorescence in each sample. Bars represent the mean+/−SEM from three independent experiments. […] (B) Cells were treated with XB05 as described in part A. As a positive control for superoxide production, cells were treated with Antimycin A (10 μM) for 1 h. Cells were harvested and subjected to MitoSOX™ Red staining for analysis by flow cytometry as described in Methods. Histograms illustrate representative data and bar graphs show the mean+/−SEM for three independent experiments.
(§2) Flow Cytometric Assays. Analyses were performed using a FACScalibur flow cytometer (BD Biosciences, Mountain View, Calif.) and FlowJo software (Tree Star, Inc., Ashland, Oreg.). Cells were treated as indicated in the figures and in the Brief Description of the Drawings. Cells were harvested by using TrypLE Cell Dissociation Reagent (Life Technologies). For cell death analyses, cells (adherent and detached cells) were stained with annexin-V-FITC and propidium iodide (PI) using the Apoptosis Detection Kit (BD Biosciences, San Jose, Calif.), according to the manufacturer's instructions. For cell-cycle distribution, cells were fixed, and stained with PI using the Cycle Test Plus kit (Becton Dickinson, Franklin Lakes, N.J.). For detection of γ-H2AX, cells were washed with PBS and fixed in 4% paraformaldehyde in PBS for 10 min at 37° C. Cells were then permeabilized in 90% methanol for 30 min on ice, blocked in 2% BSA (w/v in PBS) for 1 h, and incubated with γ-H2AX antibody or rabbit IgG isotype control (Santa Cruz, sc-2027) (0.3 μg/mL in 1% BSA) for 1 h. […] Cells were then washed twice with PBS, re-suspended at a density of 1×10^6 cells/mL in PBS and analyzed by flow cytometry.

U937 cells [2] = assay: as above; conditions: U937, 1 μM, 8 h
Method: as §1, §2

A549 cells [3] = assay: as above; conditions: A549, 2 μM, 8 h
Method: as §1, §2

Hs27 cells [4] = assay: Alkaline comet assay; conditions: Hs27, 72 h
Method: (§3) FIG. 11: XB05 Induces DNA Damage in Malignant Cells. (A) Alkaline comet assays for detection of DNA damage for cells treated as indicated for 72 h. TBHP was a positive control for oxidative DNA damage. Decreased DNA fluorescence in nucleoid comet heads (arrows) and increased smearing of DNA into comet tails (asterisks) is indicated. Scale bar, 400 μm. Data shown are representative of at least two individual experiments for each cell line. (B) Western blot analysis for γ-H2AX and GAPDH (loading control) in whole cell extracts from cells treated with vehicle, UV irradiation (800 μJ, positive control for DSBs), or XB05 (1 μM for U937, 2 μM for A549) after 24 h. Images shown are representative of three individual experiments in each cell line. (C) Flow cytometric detection of γ-H2AX in cells treated as described in part B. Bar graph represents mean+/−SEM for 3 individual experiments in each cell line. Statistical comparison indicated significant differences between vehicle and XB05-treated groups in both cell lines (*p≦0.05).
(§4) Comet Assays. Cells were washed once with ice cold PBS, harvested as described and re-suspended at 1×10^5 cells/mL in PBS. As a positive control, cells were incubated with 100 μM tert-butyl hydrogen peroxide (TBHP) for 30 mins (U937, A549) or 1 h (Hs27) at 4° C. prior to harvesting. Comet assays were performed using the CometAssay Kit (Trevigen, Gaithersburg, Md.) according to the manufacturer's instructions. Cells were visualized and digital images captured on an EVOSfI Digital Fluorescent Microscope equipped with a fluorescein light cube.

U937 cells [5] = assay: Alkaline comet assay; conditions: U937, 72 h
Method: as §3, §4

A549 cells [6] = assay: Alkaline comet assay; conditions: A549, 72 h
Method: as §3, §4

CCCCCC(O)C#CC(F)(F)Br (stereo not drawn) [XB05]
MitoSOX Red fluorescence vs vehicle (Hs27 cells [1]): not in Hs27 non-malignant fibroblasts
MitoSOX Red fluorescence vs vehicle (U937 cells [2]): increase in MitoSOX™ Red fluorescence
MitoSOX Red fluorescence vs vehicle (A549 cells [3]): increase in MitoSOX™ Red fluorescence
DNA damage (comet tails) (Hs27 cells [4]): no evidence of DNA damage
DNA damage (comet tails) (U937 cells [5]): comet tails
DNA damage (comet tails) (A549 cells [6]): comet tails
